Test results reported in ChEMBL document CHEMBL3861987, “Synthesis, antitumor evaluation and 3D-QSAR studies of [1,2,4]triazolo[4,3-b][1,2,4,5]tetrazine derivatives” (Bioorg Med Chem Lett, 2016).

Key:
MCF-7 (Homo sapiens) = test: Antiproliferative activity against human MCF-7 cells after 72 hrs by MTT assay; details: MCF-7, 72 h
[1] = Cytotoxicity against human MCF7 cells assessed as reduction in cell viability after 72 hrs by MTT assay; assay type: functional, cell-based; details: MCF7, 72 h
[2] = Cytotoxicity against human HL60 cells assessed as reduction in cell viability after 72 hrs by MTT assay; assay type: functional, cell-based; details: HL-60, 72 h
[3] = Cytotoxicity against human Bewo cells assessed as reduction in cell viability after 72 hrs by MTT assay; assay type: functional, cell-based
[4] = Solubility of compound in DMSO; assay type: physicochemical

| SMILES | IC50 (MCF-7 (Homo sapiens); read-out: IC50) | IC50 (MCF-7 (Homo sapiens); read-out: pIC50 (converted)) | solubility [4] | IC50 [1] | IC50 [2] | IC50 [3] |
| --- | --- | --- | --- | --- | --- | --- |
| CCCCCC(=O)N1CCN(c2nnc3nncn3n2)CC1 | 5.26 µM | 5.26 µM |  |  |  |  |
| CCC(=O)N1CCN(c2nnc3nncn3n2)CC1 | 14.8 µM | 14.8 µM |  |  |  |  |
| c1nnc2nnc(NC3CCCC3)nn12 | 88.2 µM | 88.1 µM |  |  |  |  |
| CCCCNc1nnc2nncn2n1 | 13.7 µM | 13.7 µM |  |  |  |  |
| O=C(c1ccc([N+](=O)[O-])cc1)N1CCN(c2nnc3nncn3n2)CC1 | 4.53 µM | 4.53 µM |  |  |  |  |
| O=C(c1ccc(Cl)cc1)N1CCN(c2nnc3nncn3n2)CC1 | 12.8 µM | 12.9 µM |  |  |  |  |
| CCCCC(=O)N1CCN(c2nnc3nncn3n2)CC1 | 2.76 µM | 2.75 µM |  |  |  |  |
| CC(=O)N1CCN(c2nnc3nncn3n2)CC1 | 13.9 µM | 13.9 µM |  |  |  |  |
| Nc1nnc2nncn2n1 | 46.5 µM | 46.5 µM |  |  |  |  |
| OCCNc1nnc2nncn2n1 | 11.6 µM | 11.6 µM |  |  |  |  |
| CN1CCN(c2nnc3nncn3n2)CC1 | 21.6 µM | 21.6 µM |  |  |  |  |
| CC(C)(C)C(=O)N1CCN(c2nnc3nncn3n2)CC1 | 5.51 µM | 5.51 µM |  |  |  |  |
| c1nnc2nnc(NC3CCCCC3)nn12 | 3.51 µM | 3.52 µM |  |  |  |  |
| Cc1nnc2nnc(N3CCCC3)nn12 |  | 44.9 µM |  | 44.8 µM | 29.7 µM | 5.36 µM |
| O=[N+]([O-])c1ccc(-c2nnc3nnc(N4CCCC4)nn23)cc1 |  |  |  | > 100 µM | > 100 µM | > 100 µM |
| C1CCC(c2nnc3nnc(N4CCCC4)nn23)CC1 |  | 37.7 µM |  | 37.7 µM | 23.8 µM | 22 µM |
| Cc1ccc(-c2nnc3nnc(-n4nc(C)cc4C)nn23)cc1 |  | 36.2 µM |  | 36.2 µM | > 100 µM | 7.54 µM |
| Clc1ccc(-c2nnc3nnc(N4CCCC4)nn23)c(Cl)c1 |  | 19.6 µM |  | 19.6 µM | 8.65 µM | 8.06 µM |
| CCCCCc1nnc2nnc(-n3nc(C)cc3C)nn12 |  | 22 µM |  | 22 µM | 1.05 µM | 2.79 µM |

| SMILES | IC50 (MCF-7 (Homo sapiens); read-out: IC50) | IC50 (MCF-7 (Homo sapiens); read-out: pIC50 (converted)) | solubility [4] | IC50 [1] | IC50 [2] | IC50 [3] |
| --- | --- | --- | --- | --- | --- | --- |
| COc1ccc(-c2nnc3nnc(N4CCOCC4)nn23)cc1 |  |  |  | > 100 µM | 39 µM | 8.94 µM |
| Clc1ccccc1-c1nnc2nnc(N3CCCC3)nn12 |  | 29.6 µM |  | 29.6 µM | 2.66 µM | 2.99 µM |
| Fc1ccc(-c2nnc3nnc(N4CCOCC4)nn23)cc1 |  | 32.9 µM |  | 32.9 µM | 28.9 µM | 4.65 µM |
| Cc1cc(C)n(-c2nnc3nnc(C)n3n2)n1 |  | 17.8 µM |  | 17.8 µM | 0.43 µM | 2.61 µM |
| Cc1nnc2nnc(N3CCOCC3)nn12 |  | 38.9 µM |  | 38.9 µM | 4.52 µM | 5.88 µM |
| O=[N+]([O-])c1ccc(-c2nnc3nnc(N4CCOCC4)nn23)cc1 |  |  |  | > 100 µM | 5.79 µM | > 100 µM |
| Fc1ccc(-c2nnc3nnc(N4CCCC4)nn23)cc1 |  |  | Insoluble | > 100 µM | 4.56 µM | > 100 µM |
| Clc1ccccc1-c1nnc2nnc(N3CCOCC3)nn12 |  | 14.9 µM |  | 14.9 µM | 13.2 µM | 3.15 µM |
| CC(C)c1nnc2nnc(N3CCCC3)nn12 |  | 46.8 µM |  | 46.8 µM | 71.2 µM | 3.43 µM |
| Cc1cc(C)n(-c2nnc3nnc(-c4ccc(Cl)cc4)n3n2)n1 |  | 5.57 µM |  | 5.57 µM | > 100 µM | 22.6 µM |
| CCc1nnc2nnc(-n3nc(C)cc3C)nn12 |  | 36.1 µM |  | 36 µM | 0.82 µM | 1.64 µM |
| Cc1cc(C)n(-c2nnc3nnc(C4CCCCC4)n3n2)n1 |  | 12.8 µM |  | 12.8 µM | 0.67 µM | 6.7 µM |
| Cc1cc(C)n(-c2nnc3nnc(Cc4ccccc4)n3n2)n1 |  | 54.8 µM |  | 54.8 µM | 2.61 µM | 2.29 µM |
| O=[N+]([O-])c1ccc(-c2nnc3nnc(N4CCCCC4)nn23)cc1 |  |  |  | > 100 µM | 0.61 µM | > 100 µM |
| CCCCCc1nnc2nnc(N3CCCC3)nn12 |  | 42.9 µM |  | 42.9 µM | 42.5 µM | 27.9 µM |
| COc1ccc(-c2nnc3nnc(N4CCCCC4)nn23)cc1 |  |  |  | > 100 µM | 12.8 µM | > 100 µM |
| Cc1cc(C)n(-c2nnc3nnc(-c4ccc([N+](=O)[O-])cc4)n3n2)n1 |  | 6.85 µM |  | 6.85 µM | > 100 µM | 7.29 µM |
| CCc1nnc2nnc(N3CCCC3)nn12 |  | 47 µM |  | 47 µM | 47 µM | 5.02 µM |

Second part, led by results:

| IC50 (MCF-7 (Homo sapiens); read-out: IC50) | IC50 (MCF-7 (Homo sapiens); read-out: pIC50 (converted)) | solubility [4] | SMILES | IC50 [1] | IC50 [2] | IC50 [3] |
| --- | --- | --- | --- | --- | --- | --- |
| 27.3 µM | 27.3 µM |  | c1ccc(CN2CCN(c3nnc4nncn4n3)CC2)cc1 |  |  |  |
| 8.38 µM | 8.38 µM |  | O=C(c1ccccc1)N1CCN(c2nnc3nncn3n2)CC1 |  |  |  |
| 19.8 µM | 19.8 µM |  | CCCNc1nnc2nncn2n1 |  |  |  |
| 3.08 µM | 3.08 µM |  | O=C(Cc1ccccc1)N1CCN(c2nnc3nncn3n2)CC1 |  |  |  |
| 1.24 µM | 1.24 µM |  | c1ccc(CCNc2nnc3nncn3n2)cc1 |  |  |  |
| 27.2 µM | 27.2 µM |  | c1nnc2nnc(N3CCCCC3)nn12 |  |  |  |
| 15.9 µM | 15.9 µM |  | Cc1ccc(C(=O)N2CCN(c3nnc4nncn4n3)CC2)cc1 |  |  |  |
| 6.91 µM | 6.92 µM |  | CCCC(=O)N1CCN(c2nnc3nncn3n2)CC1 |  |  |  |
| 5.39 µM | 5.38 µM |  | CC(C)COC(=O)N1CCN(c2nnc3nncn3n2)CC1 |  |  |  |
| 1.26 µM | 1.26 µM |  | O=C(C1CCCCC1)N1CCN(c2nnc3nncn3n2)CC1 |  |  |  |
|  |  | Insoluble | c1ccc(-c2nnc3nnc(N4CCCC4)nn23)cc1 | > 100 µM | > 100 µM | > 100 µM |
|  | 19.5 µM |  | Cc1cc(C)n(-c2nnc3nnc(-c4ccccc4Cl)n3n2)n1 | 19.5 µM | 73.6 µM | 3.21 µM |
|  | 13.6 µM |  | Cc1cc(C)n(-c2nnc3nnc(-c4ccccc4)n3n2)n1 | 13.7 µM | 12.1 µM | 23.6 µM |
|  | 8.87 µM |  | c1ccc(-c2nnc3nnc(N4CCOCC4)nn23)cc1 | 8.87 µM | 30.4 µM | 5.65 µM |
|  | 55 µM |  | CC(C)(C)c1nnc2nnc(N3CCCC3)nn12 | 55 µM | > 100 µM | 12.5 µM |
|  | 33.7 µM |  | Cc1cc(C)n(-c2nnc3nnc(C(C)C)n3n2)n1 | 33.7 µM | 1.16 µM | 2.32 µM |
|  | 19.3 µM |  | Clc1ccc(-c2nnc3nnc(N4CCOCC4)nn23)c(Cl)c1 | 19.3 µM | 4.84 µM | 1.71 µM |
|  | 17.6 µM |  | Cc1cc(C)n(-c2nnc3nnc(C(C)(C)C)n3n2)n1 | 17.6 µM | 0.73 µM | 0.73 µM |
|  | 13.1 µM |  | Clc1ccc(-c2nnc3nnc(N4CCOCC4)nn23)cc1 | 13.1 µM | 0.63 µM | 4.09 µM |
|  | 16.7 µM |  | COc1ccc(-c2nnc3nnc(-n4nc(C)cc4C)nn23)cc1 | 16.7 µM | > 100 µM | 18.3 µM |
|  | 41.4 µM |  | Fc1ccc(-c2nnc3nnc(N4CCCCC4)nn23)cc1 | 41.4 µM | 30.7 µM | 3.34 µM |
